Laboratory results: PubChem BioAssay AID330 (DTP/NCI, 2004)
Values joined by “and” are separate entries in the source; they are usually repeats but may differ in a detail not shown here. Identical values can stand only once. Toxic doses and inconclusive results are not listed.

System: P388 leukemia ip, CD2F1 mice, survival T/C
Test: NCI In Vivo Anticancer Drug Screen. Data for tumor model P388 Leukemia (intraperitoneal) in CD2F1 (CDF1) mice
Conditions: endpoint: median survival time, higher = longer survival
Method in brief: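 Mice carrying the transplanted tumor received test compound or vehicle. Survival was recorded in each group, and the value is the treated-group measurement divided by that of the vehicle-treated control group.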

[1] = dose: 25.0 mg/kg/injection, schedule: Q01DX009 (ip), vehicle: saline with Tween-80
[2] = dose: 50.0 mg/kg/injection, schedule: Q01DX009 (ip), vehicle: saline with Tween-80
[3] = dose: 50.0 mg/kg/injection, schedule: Q01DX005 (ip), vehicle: saline with Tween-80
[4] = dose: 100.0 mg/kg/injection, schedule: Q01DX009 (ip), vehicle: saline with Tween-80
[5] = dose: 200.0 mg/kg/injection, schedule: Q01DX009 (ip), vehicle: saline with Tween-80
[6] = dose: 50.0 mg/kg/injection, schedule: Q01DX009 (ip), vehicle: Klucel (hydroxypropylcellulose) (HPC)
[7] = dose: 100.0 mg/kg/injection, schedule: Q01DX009 (ip), vehicle: Klucel (hydroxypropylcellulose) (HPC)
[8] = dose: 200.0 mg/kg/injection, schedule: Q01DX009 (ip), vehicle: Klucel (hydroxypropylcellulose) (HPC)
[9] = dose: 60.0 mg/kg/injection, schedule: Q01DX005 (ip), vehicle: saline with Tween-80
[10] = dose: 120.0 mg/kg/injection, schedule: Q01DX005 (ip), vehicle: saline with Tween-80
[11] = dose: 240.0 mg/kg/injection, schedule: Q01DX005 (ip), vehicle: saline with Tween-80
[12] = dose: 50.0 mg/kg/injection, schedule: Q01DX005 (ip), vehicle: Klucel (hydroxypropylcellulose) (HPC)
[13] = dose: 100.0 mg/kg/injection, schedule: Q01DX005 (ip), vehicle: Klucel (hydroxypropylcellulose) (HPC)
[14] = dose: 200.0 mg/kg/injection, schedule: Q01DX005 (ip), vehicle: Klucel (hydroxypropylcellulose) (HPC)
[15] = dose: 50.0 mg/kg/injection, schedule: Q01DX005 (ip), vehicle: saline
[16] = dose: 100.0 mg/kg/injection, schedule: Q01DX005 (ip), vehicle: saline
[17] = dose: 200.0 mg/kg/injection, schedule: Q01DX005 (ip), vehicle: saline

For C[n+]1c(-c2cc(C(F)(F)F)cc(C(F)(F)F)c2)c2cc(N)ccc2c2ccc(N)cc21, the T/C (dose: 2.5 mg/kg/injection, schedule: Q01DX009 (ip), vehicle: water) was 110 % of control, the T/C (dose: 5.0 mg/kg/injection, schedule: Q01DX009 (ip), vehicle: water) was 115 % of control and the T/C (dose: 10.0 mg/kg/injection, schedule: Q01DX009 (ip), vehicle: water) was 118 % of control. The T/C (dose: 12.5 mg/kg/injection, schedule: Q01DX009 (ip), vehicle: saline with Tween-80) was 158 % of control, the T/C (dose: 20.0 mg/kg/injection, schedule: Q01DX009 (ip), vehicle: water) was 152 % of control and the T/C [1] was 166 % of control. The T/C [2] was 196 % of control and the T/C (dose: 80.0 mg/kg/injection, schedule: Q01DX009 (ip), vehicle: water) was 111 % of control.
In the case of C1=CC2OC1c1cc3c(cc12)[C@@H]1C=C[C@@H]3O1, the T/C [3] is reported as 96 % of control, the T/C (dose: 100.0 mg/kg/injection, schedule: Q01DX005 (ip), vehicle: saline with Tween-80) is reported as 105 % of control and the T/C (dose: 200.0 mg/kg/injection, schedule: Q01DX005 (ip), vehicle: saline with Tween-80) is reported as 91 % of control.
With Cc1cccc(/C=N\N=C\c2cccc(C)n2)n1 the T/C [4] was 100 % of control and the T/C [5] was 100 % of control.
For CCCCCCCCCCN1CCS(=O)(=O)CC1, the T/C [6] was 101 % of control, the T/C [7] was 100 % of control and the T/C [8] was 98 % of control.
For CCCCCCCCCCC(Nc1nncs1)Nc1nncs1, the T/C [9] was 96 % of control, the T/C [10] was 95 % of control and the T/C [11] was 95 % of control.
CSc1nc(NC2OC(COC(C)=O)C(OC(C)=O)C(OC(C)=O)C2OC(C)=O)c(N=CC=Nc2c(NC3OC(COC(C)=O)C(OC(C)=O)C(OC(C)=O)C3OC(C)=O)nc(SC)[nH]c2=O)c(=O)[nH]1 (stereo unspecified) was tested, and the T/C [9] was 89 % of control, the T/C [10] was 99 % of control and the T/C [11] was 111 % of control.
O=C(Nc1cnns1)Oc1ccccc1 was tested, and the T/C (dose: 12.5 mg/kg/injection, schedule: Q01DX009 (ip), vehicle: other) was 117 % of control, the T/C (dose: 25.0 mg/kg/injection, schedule: Q01DX009 (ip), vehicle: other) was 92 % of control and the T/C (dose: 50.0 mg/kg/injection, schedule: Q01DX009 (ip), vehicle: other) was 93 % of control. For the same molecule, the T/C (dose: 100.0 mg/kg/injection, schedule: Q01DX009 (ip), vehicle: other) was 92 % of control and the T/C (dose: 200.0 mg/kg/injection, schedule: Q01DX009 (ip), vehicle: other) was 97 % of control.
Cc1cc2c(c(O)cc(=O)n2Cc2ccccc2)c(=O)n1Cc1ccccc1 was tested, and the T/C [12] was 102 % of control, the T/C [13] was 94 % of control and the T/C [14] was 100 % of control.
In the case of S=P12OCCC(CO1)O2 (stereo unspecified), the T/C (dose: 100.0 mg/kg/injection, schedule: Q04DX003 (ip), vehicle: Klucel (hydroxypropylcellulose) (HPC)) is reported as 100 % of control, the T/C (dose: 200.0 mg/kg/injection, schedule: Q04DX003 (ip), vehicle: Klucel (hydroxypropylcellulose) (HPC)) is reported as 97 % of control and the T/C (dose: 400.0 mg/kg/injection, schedule: Q04DX003 (ip), vehicle: Klucel (hydroxypropylcellulose) (HPC)) is reported as 97 % of control.
For O=C1O/C(=C\c2ccccc2)c2c(Br)c(Br)c(Br)c(Br)c21, the T/C [2] was 94 % of control, the T/C [4] was 93 % of control and the T/C [5] was 99 % of control. The T/C (dose: 400.0 mg/kg/injection, schedule: Q01DX009 (ip), vehicle: saline with Tween-80) was 99 % of control.
With CCCCC(CC)C(=O)NCCCN(C)C (stereo unspecified) the T/C [15] was 99 % of control, the T/C [16] was 99 % of control and the T/C [17] was 94 % of control.
In the case of CCCSC(SCCC)C1OC(c2ccccc2)OC2COC(c3ccccc3)OC21 (stereo unspecified), the T/C (dose: 50.0 mg/kg/injection, schedule: Q01DX005 (ip), vehicle: Klucel + Tween-80) is reported as 90 % of control, the T/C (dose: 100.0 mg/kg/injection, schedule: Q01DX005 (ip), vehicle: Klucel + Tween-80) is reported as 87 % of control and the T/C (dose: 200.0 mg/kg/injection, schedule: Q01DX005 (ip), vehicle: Klucel + Tween-80) is reported as 87 % of control.
With CCC1(CC)CCC(C(=O)OC)/C1=N\Nc1ccc([N+](=O)[O-])cc1[N+](=O)[O-] (stereo unspecified) the T/C (dose: 100.0 mg/kg/injection, schedule: Q01DX001 (ip), vehicle: Klucel (hydroxypropylcellulose) (HPC)) was 102 % of control, the T/C (dose: 200.0 mg/kg/injection, schedule: Q01DX001 (ip), vehicle: Klucel (hydroxypropylcellulose) (HPC)) was 98 % of control and the T/C (dose: 400.0 mg/kg/injection, schedule: Q01DX001 (ip), vehicle: Klucel (hydroxypropylcellulose) (HPC)) was 100 % of control.
For CC1(OC(=O)c2ccccc2)CC(C)(C)[N+]([O-])=N1 (stereo unspecified), the T/C (dose: 12.5 mg/kg/injection, schedule: Q01DX005 (ip), vehicle: other) was 97 % of control, the T/C (dose: 25.0 mg/kg/injection, schedule: Q01DX005 (ip), vehicle: other) was 98 % of control and the T/C (dose: 50.0 mg/kg/injection, schedule: Q01DX005 (ip), vehicle: other) was 100 % of control. For the same molecule, the T/C (dose: 100.0 mg/kg/injection, schedule: Q01DX005 (ip), vehicle: other) was 90 % of control and the T/C (dose: 200.0 mg/kg/injection, schedule: Q01DX005 (ip), vehicle: other) was 93 % of control.
CN(N=O)C(=O)Nc1ccc(C(=O)O)cc1 was tested, and the T/C [1] was 181 % of control, the T/C (dose: 25.0 mg/kg/injection, schedule: Q04DX003 (ip), vehicle: saline with Tween-80) was 155 % of control and the T/C [2] was 181 % of control. For the same molecule, the T/C (dose: 50.0 mg/kg/injection, schedule: Q04DX003 (ip), vehicle: saline with Tween-80) was 180 % of control, the T/C (dose: 66.0 mg/kg/injection, schedule: Q04DX003 (ip), vehicle: saline with Tween-80) was 159 % of control and the T/C (dose: 100.0 mg/kg/injection, schedule: Q04DX003 (ip), vehicle: saline with Tween-80) was 172 % of control and 200 % of control.
With CC(=O)[OH+]c1c(I)cc(I)cc1C(=O)[O-].CC(=O)[OH+]c1c(I)cc(I)cc1C(=O)[O-].[Cu+2] the T/C (dose: 15.0 mg/kg/injection, schedule: Q01DX005 (ip), vehicle: saline) was 106 % of control, the T/C (dose: 30.0 mg/kg/injection, schedule: Q01DX005 (ip), vehicle: saline) was 92 % of control and the T/C (dose: 60.0 mg/kg/injection, schedule: Q01DX005 (ip), vehicle: saline) was 106 % of control and 109 % of control.
With CC(=O)SC1(C(C(N)=S)c2ccccc2)CCN(C)CC1 (stereo unspecified) the T/C [15] was 105 % of control, the T/C [16] was 111 % of control and the T/C [17] was 101 % of control.
With O=C(O)c1ccccc1Nc1cccc([N+](=O)[O-])c1 the T/C (dose: 25.0 mg/kg/injection, schedule: Q04DX003 (ip), vehicle: saline) was 99 % of control, the T/C (dose: 50.0 mg/kg/injection, schedule: Q04DX003 (ip), vehicle: saline) was 114 % of control and the T/C (dose: 100.0 mg/kg/injection, schedule: Q04DX003 (ip), vehicle: saline) was 114 % of control. For the same molecule, the T/C (dose: 200.0 mg/kg/injection, schedule: Q04DX003 (ip), vehicle: saline) was 112 % of control.
In the case of COc1cc(O)c(CC=C(C)C)cc1O, the T/C [12] is reported as 105 % of control and the T/C [13] is reported as 101 % of control.
CC/C(C)=N/NC(=S)NC was tested, and the T/C (dose: 6.25 mg/kg/injection, schedule: Q01DX009 (ip), vehicle: saline) was 98 % of control, the T/C (dose: 12.5 mg/kg/injection, schedule: Q01DX009 (ip), vehicle: saline) was 98 % of control and the T/C (dose: 25.0 mg/kg/injection, schedule: Q01DX009 (ip), vehicle: saline) was 101 % of control.
In the case of CCOC(=O)C1=C(C)NC(C)=C(C(=O)OCC)C1c1ccc(OC)cc1, the T/C (dose: 25.0 mg/kg/injection, schedule: Q01DX009 (ip), vehicle: Klucel (hydroxypropylcellulose) (HPC)) is reported as 94 % of control, the T/C [6] is reported as 91 % of control and the T/C [7] is reported as 100 % of control. For the same molecule, the T/C [8] was 101 % of control.
In the case of Brc1nn[nH]n1, the T/C [6] is reported as 101 % of control and the T/C [7] is reported as 90 % of control.
In the case of COc1cccc(C(Cc2ccccc2)Nc2ccccc2)c1OC (stereo unspecified), the T/C (dose: 3.0 mg/kg/injection, schedule: Q01DX005 (ip), vehicle: Klucel (hydroxypropylcellulose) (HPC)) is reported as 94 % of control, the T/C (dose: 6.0 mg/kg/injection, schedule: Q01DX005 (ip), vehicle: Klucel (hydroxypropylcellulose) (HPC)) is reported as 93 % of control and the T/C (dose: 12.0 mg/kg/injection, schedule: Q01DX005 (ip), vehicle: Klucel (hydroxypropylcellulose) (HPC)) is reported as 93 % of control. For the same molecule, the T/C [12] was 92 % of control and the T/C [14] was 88 % of control.
With CC(=O)OCn1cc2c3c(cccc31)C1CC(C)CN(C)C1C2 (stereo unspecified) the T/C (dose: 12.5 mg/kg/injection, schedule: Q01DX005 (ip), vehicle: saline with Tween-80) was 98 % of control, the T/C (dose: 25.0 mg/kg/injection, schedule: Q01DX005 (ip), vehicle: saline with Tween-80) was 106 % of control and the T/C [3] was 100 % of control.
